From ChEMBL document CHEMBL3507680, “University of Dundee, Gates Library screen for HepG2 cell viability” come the findings set out here.

This data set is described as follows: Human HepG2 cell viability assay in 384 well format. On the set-up: dose 125 nL, time 70.5 hour; cytotoxicity at 70.5 h: concentration not given beside the values. As to conditions: HepG2 cells, read-out: Inhibition. It counts as toxicity, cell-based.
As for `O=C(c1cc2cc(F)ccc2[nH]1)N1CCC(Nc2ccc(F)cc2)CC1`, the cytotoxicity at 70.5 h was -4.25%.

With `CCNC(=O)C(C)NC(=O)c1cnc(-c2ccc(C)cc2C)s1` (configuration not stated), the cytotoxicity at 70.5 h amounted to 1.57%.

In the case of `O=C(Cc1c[nH]c2ccccc12)N1CCC(Nc2cccnc2)CC1`, the cytotoxicity at 70.5 h was -0.82%.

Consider `CCc1ccc(C(=O)N2CCN(c3nc(C)cc(OC)n3)CC2)o1`, for which the cytotoxicity at 70.5 h stood at 4.76%.

For `CNC(=O)c1ccc(CNC(=O)NCCN(C)C2CCCC2)cc1`, the cytotoxicity at 70.5 h was -1.36%.

Turning to `O=C(c1cc2ccccc2[nH]1)N1CCC(Nc2cccnn2)CC1`, the cytotoxicity at 70.5 h is -6.88%.

As to `O=C(c1cc2c(F)cccc2[nH]1)N1CCC(Nc2cccnn2)CC1`, the cytotoxicity at 70.5 h came out at 0.884%.

As for `CN(c1cccnn1)C1CCN(C(=O)Cc2c[nH]c3ccccc23)CC1`, the cytotoxicity at 70.5 h was -4.23%.

With `CN1CCOC(CNCc2csc(C3CCCCC3)n2)C1` (configuration not stated), the cytotoxicity at 70.5 h is -13.3%.

Turning to `CC(O)(CN1CCC(O)CC1)c1cccc(C(F)(F)F)c1` (configuration not stated), the cytotoxicity at 70.5 h was -14.5%.

As to `Cc1nn(C)c(N(C)C)c1CNC(C)COc1ccc(F)cc1F` (configuration not stated), the cytotoxicity at 70.5 h is -8.01%.

Take `Cn1cnc2c1CCN(Cc1csc(C3CCCC3)n1)C2`: the cytotoxicity at 70.5 h is -9.44%.

On to `O=C(CCn1cncn1)N1CCCC1c1noc(C2CC2)n1` (configuration not stated), for which the cytotoxicity at 70.5 h is -7.06%.

For the compound `COCCOc1ncccc1C(=O)N1CCCC(n2ccnc2C)C1` (configuration not stated), the cytotoxicity at 70.5 h is -13.5%.

On to `O=C(NCCn1ccnc1)N1CCN(Cc2cccnc2)CC1`, for which the cytotoxicity at 70.5 h is -5.29%.

Take `CCCC(=O)NC(C)c1nnc2n1CCC2` (configuration not stated): the cytotoxicity at 70.5 h is -15.3%.

Turning to `CCOc1ncccc1CNC(=O)Nc1ccccc1`, the cytotoxicity at 70.5 h turned out to be 16.2%.

Take `CCOc1ncccc1CNC(=O)Nc1ccc(OC)c(OC)c1`: the cytotoxicity at 70.5 h was -5.39%.

Consider `CN(C)c1ncccc1CNS(=O)(=O)c1cc(F)cc(F)c1`, for which the cytotoxicity at 70.5 h was -6.43%.

As for `Cn1ccc(C(=O)NCc2ccccc2CN2CCCC2)cc1=O`, the cytotoxicity at 70.5 h was 16%.

Take `CN(C)c1ncccc1CNS(=O)(=O)c1cc(F)ccc1F`: the cytotoxicity at 70.5 h was -11.5%.

`O=C(NCCn1ccnc1)N1CCCN(Cc2cccs2)CC1`: the cytotoxicity at 70.5 h was -9.01%.

With `Cn1ccc(C(=O)NCc2ccccc2CN2CCCCC2)cc1=O`, the cytotoxicity at 70.5 h was -7.11%.

With `O=C(NCCn1ccnc1)N1CCN(Cc2ccsc2)CC1`, the cytotoxicity at 70.5 h turned out to be 9.21%.

Turning to `CCOc1cccc(C(C)NCc2c(C)nn(C)c2N(C)C)c1` (configuration not stated), the cytotoxicity at 70.5 h is -8.02%.

With `Fc1cccc(-n2ccc(CN3CCCC3Cn3cccn3)n2)c1` (configuration not stated), the cytotoxicity at 70.5 h was -14.3%.

`Cc1nnc(NC(=O)CN2CCc3nn(C)c(=O)cc3C2)s1`: the cytotoxicity at 70.5 h was determined as 10.8%.

In the case of `CCc1n[nH]c(C2CN(C(=O)c3cnc(C)cn3)CCO2)n1` (configuration not stated), the cytotoxicity at 70.5 h was -10.6%.

With `Cc1nc(CN(C)C2CCN(CCc3ccccn3)C2)no1` (configuration not stated), the cytotoxicity at 70.5 h was found to be 24.5%.

With `Cc1cnn(CC2CCCN2CC(=O)Nc2cc(C(C)C)no2)c1` (configuration not stated), the cytotoxicity at 70.5 h is -7.84%.

In the case of `CN1CCC/C1=N\S(=O)(=O)c1ccc(NC(=O)c2ccco2)cc1`, the cytotoxicity at 70.5 h came to 11.9%.

Take `CN1CCC/C1=N\S(=O)(=O)c1ccc(NC(=O)c2ccc(Cl)s2)cc1`: the cytotoxicity at 70.5 h is -18.3%.

Regarding `CCn1cc(NC(=O)NCc2ccc3c(c2)OCO3)cn1`, the cytotoxicity at 70.5 h was -1.53%.

As for `CCn1cc(NC(=O)NCCc2ccc3c(c2)OCCO3)cn1`, the cytotoxicity at 70.5 h was -6.54%.

Take `CCN(CC)C(=O)c1ccc(-n2ncc(C#N)c2N)cc1`: the cytotoxicity at 70.5 h came to 12.9%.

In the case of `Cc1cc(N2CCC(C(=O)NC3CC3)CC2)nc(-c2ccncc2)n1`, the cytotoxicity at 70.5 h was -7.6%.

Consider `CN(C)c1ccc(C(=O)N2CCN(Cc3cscn3)CC2)cn1`, for which the cytotoxicity at 70.5 h is -6.24%.

On to `CC(=O)NCC1CCN(c2cc(C)nc(-c3ccncc3)n2)CC1`, for which the cytotoxicity at 70.5 h is -10.9%.

As for `COC(=O)C1CCN(c2cc(C)nc(-c3ccncc3)n2)CC1`, the cytotoxicity at 70.5 h is -8.27%.

Take `Cc1cc(N2CCC(C(=O)N(C)C)CC2)nc(-c2ccncc2)n1`: the cytotoxicity at 70.5 h amounted to 3.79%.

Consider `CCN(Cc1cccc2c1OCO2)C(=O)Nc1cn[nH]c1`, for which the cytotoxicity at 70.5 h is -5.23%.

In the case of `Cc1ccccc1OCC(O)CN1CCC(Cn2cccn2)CC1` (configuration not stated), the cytotoxicity at 70.5 h is 2.37%.

`N#Cc1ccc(OCC(O)CN2CCC(Cn3cccn3)CC2)cc1` (configuration not stated): the cytotoxicity at 70.5 h is -3.6%.

For `CCC(O)CN1CCN(C(=O)Cc2cc(C)ccc2OC)CC1` (configuration not stated), the cytotoxicity at 70.5 h was -1.58%.

With `CCc1ccsc1C(=O)N1CCN(CC(C)O)CC1` (configuration not stated), the cytotoxicity at 70.5 h was -2.62%.

On to `CCn1cc(NC(=O)Nc2ccc3c(c2)OCCO3)cn1`, for which the cytotoxicity at 70.5 h was -5.76%.

Take `Cc1nc(CN(C)C2CCN(CCCc3ccccc3)C2)no1` (configuration not stated): the cytotoxicity at 70.5 h is -2.23%.

In the case of `COc1c(CNC2CCc3cc(F)ccc32)c(C(C)C)nn1C` (configuration not stated), the cytotoxicity at 70.5 h was determined as 16.8%.

For the compound `CC(c1cccc(S(N)(=O)=O)c1)N(C)CCOC(C)(C)C` (configuration not stated), the cytotoxicity at 70.5 h is -2.34%.

In the case of `CCC(O)CN1CCN(C(=O)Cc2ccc(OC)cc2OC)CC1` (configuration not stated), the cytotoxicity at 70.5 h came to 0.587%.

As for `Cc1cnn(CCNCc2nnc(-c3ccccc3)o2)c1`, the cytotoxicity at 70.5 h was -1.2%.

Turning to `Cc1cnn(CC2CCCN2CC(=O)Nc2cc(C)no2)c1` (configuration not stated), the cytotoxicity at 70.5 h is -3.79%.

For `CC(c1cccc(S(N)(=O)=O)c1)N(C)CCCOc1ccccc1` (configuration not stated), the cytotoxicity at 70.5 h is -4.57%.

For `Cc1cccc(C(=O)N2CCCN(Cc3cscn3)CC2)c1`, the cytotoxicity at 70.5 h was -4.03%.

`Cc1cnc(CN2CCC(N(C)Cc3noc(C4CC4)n3)C2)o1` (configuration not stated): the cytotoxicity at 70.5 h came out at 11.7%.

As for `CCN1CCN(CCNC(=O)c2sc(C(C)C)nc2C)CC1`, the cytotoxicity at 70.5 h was 0.965%.

For the compound `O=C(c1ccc2c(c1)OCO2)N1CCCC(n2cccn2)C1` (configuration not stated), the cytotoxicity at 70.5 h was -6.41%.

On to `CC(O)CN1CCC(CNCc2cccc(C(N)=O)c2)CC1` (configuration not stated), for which the cytotoxicity at 70.5 h is -4%.

Turning to `c1cnc(-c2nc(CN3CCCC(Cn4cncn4)C3)cs2)nc1` (configuration not stated), the cytotoxicity at 70.5 h is -11%.

For the compound `Cc1csc(C2CCCN(C(=O)c3cc(Cl)c[nH]3)C2)n1` (configuration not stated), the cytotoxicity at 70.5 h was -0.903%.

`O=C(c1cccc(N2CCCC2=O)c1)N1CCCC(n2cncn2)C1` (configuration not stated): the cytotoxicity at 70.5 h was -8.04%.

`Cc1csc(C2CCCN(C(=O)c3cnc[nH]3)C2)n1` (configuration not stated): the cytotoxicity at 70.5 h is -0.708%.

For `CCCn1nc2c(cc1=O)CN(CCS(C)(=O)=O)CC2`, the cytotoxicity at 70.5 h came out at 9.12%.

Regarding `CCOc1cc(C)ccc1NC(=O)N(C)Cc1cnn(C)c1`, the cytotoxicity at 70.5 h is -3.49%.

For `COc1cc(CNCc2c(C)nn(C)c2N(C)C)ccn1`, the cytotoxicity at 70.5 h is -1.56%.

Take `CCN1CCC(NC(=O)CN2CCCC2Cn2nc(C)cc2C)CC1` (configuration not stated): the cytotoxicity at 70.5 h was -9.53%.

For the compound `O=C(CCN1CCCC1C1CCCCC1)N1CCc2sccc2C1` (configuration not stated), the cytotoxicity at 70.5 h is 2.92%.

For the compound `COCCOc1ccccc1C(=O)N1CCCCC1c1nccs1` (configuration not stated), the cytotoxicity at 70.5 h was determined as 50.2%.

With `CCCn1nc2c(cc1=O)CN(CCCN1CCCC1=O)CC2`, the cytotoxicity at 70.5 h is 7.69%.

Consider `COCc1cccc(C(=O)N2CCCCC2c2nccs2)c1` (configuration not stated), for which the cytotoxicity at 70.5 h is -8.81%.

As for `CCCn1nc2c(cc1=O)CN(CCCS(N)(=O)=O)CC2`, the cytotoxicity at 70.5 h amounted to 3.74%.

Regarding `O=C(CCC(=O)N1CCCC1c1cccs1)N1CCc2sccc2C1` (configuration not stated), the cytotoxicity at 70.5 h was found to be 2.92%.

For `CC(NC(=O)CCCOc1ccccc1)c1nnc2n1CCCCC2` (configuration not stated), the cytotoxicity at 70.5 h was -20.9%.

On to `CCc1cnc(CN2CCCC2c2noc(C3CC3)n2)o1` (configuration not stated), for which the cytotoxicity at 70.5 h is -11.3%.

In the case of `CC(C)c1nc2n(n1)CC(NCc1nnc(C(C)C)o1)CC2` (configuration not stated), the cytotoxicity at 70.5 h was -19.6%.

`COc1cccc(COCC(=O)N2CCCC(n3ccnc3)C2)c1` (configuration not stated): the cytotoxicity at 70.5 h was -11.9%.

As to `FC(F)(F)Cc1noc(CN2CCCC2c2noc(C3CC3)n2)n1` (configuration not stated), the cytotoxicity at 70.5 h is -8.5%.

`O=C(COCc1ccccc1)N1CCCC(n2cncn2)C1` (configuration not stated): the cytotoxicity at 70.5 h is -20.7%.

Turning to `COc1cccc(C(=O)N2CCCC(c3cc(C)[nH]n3)C2)c1OC` (configuration not stated), the cytotoxicity at 70.5 h is -17.6%.

With `Cc1cnn(CC2CCCCN2Cc2nc(-c3ccoc3)no2)c1` (configuration not stated), the cytotoxicity at 70.5 h was -6.01%.

`COc1cc(C(=O)N2CCCC(CNS(C)(=O)=O)C2)cc(OC)c1C` (configuration not stated): the cytotoxicity at 70.5 h was -13.5%.

Consider `O=C(NCc1nncn1-c1ccccc1)C1CC(=O)N(CC2CC2)C1` (configuration not stated), for which the cytotoxicity at 70.5 h is -18.1%.

Turning to `COc1ccc(CNC(=O)Nc2cccnc2N2CCCC2)cc1O`, the cytotoxicity at 70.5 h is -8.02%.

Turning to `Cc1ccc(-c2ncc(C(=O)NCCNC(=O)C(C)C)s2)c(C)c1`, the cytotoxicity at 70.5 h was -8.72%.

`CCN1CCN(CC(O)c2ccc(F)cc2)CC1` (configuration not stated): the cytotoxicity at 70.5 h was -14.7%.

For `O=C1CCC(C(=O)NCc2nncn2-c2ccccc2)CN1` (configuration not stated), the cytotoxicity at 70.5 h is -12.6%.

For the compound `CC(NC(=O)Nc1cc(F)ccc1N1CCCCC1)c1nncn1C` (configuration not stated), the cytotoxicity at 70.5 h was -4.36%.

Consider `Cc1nn(C)c(C)c1C(C)NC(=O)Nc1cccnc1N1CCCC1` (configuration not stated), for which the cytotoxicity at 70.5 h was -15.8%.

With `CCOCC(O)CN1CCN(C(=O)CC(C)(C)C)CC1` (configuration not stated), the cytotoxicity at 70.5 h is -18.5%.

Regarding `CC(C)c1nc2n(n1)CC(NCc1nnc(-c3ccco3)o1)CC2` (configuration not stated), the cytotoxicity at 70.5 h is -11.9%.

Take `N#Cc1ccccc1OCCN1CCCC1Cn1cccn1` (configuration not stated): the cytotoxicity at 70.5 h is -4.78%.

With `Cn1nc2c(cc1=O)CN(Cc1coc(-c3cccs3)n1)CC2`, the cytotoxicity at 70.5 h is -7.48%.

As to `Cc1cc(C2CCCN(C(=O)c3ccc(C)[nH]c3=O)C2)n[nH]1` (configuration not stated), the cytotoxicity at 70.5 h is -13.9%.

In the case of `Cc1noc(C(C)C)c1C(=O)NCCN1CCCCCC1=O`, the cytotoxicity at 70.5 h is -19%.

As to `Cc1nc(C)c(C(=O)NCCNc2ncccc2C#N)s1`, the cytotoxicity at 70.5 h was -7.46%.

As to `Cn1ccc(C(=O)NCc2cccc(CN3CCCC3)c2)cc1=O`, the cytotoxicity at 70.5 h was -3.99%.

On to `CCN1CCN(C(=O)NCCOc2ccc3c(c2)OCO3)CC1`, for which the cytotoxicity at 70.5 h is -11.4%.

For the compound `CC(O)(CN1CCC2(CC1)OCCO2)c1cccc(C(F)(F)F)c1` (configuration not stated), the cytotoxicity at 70.5 h is -4.13%.

Take `Cn1ncc2c1CCCC2NCc1cccc(C(F)(F)F)c1` (configuration not stated): the cytotoxicity at 70.5 h was -5.81%.

For the compound `Cc1noc(C(C)C)c1C(=O)NCCCN1CCNCC1`, the cytotoxicity at 70.5 h is -7.14%.

Take `COc1c(CNC2CCc3c(F)cccc32)c(C)nn1C` (configuration not stated): the cytotoxicity at 70.5 h was -7.24%.

With `Cc1cccc(CNC2CCCc3c2cnn3C)c1` (configuration not stated), the cytotoxicity at 70.5 h is -6.91%.
